Measurements from patent publication US8633245B2, “PAI-1 inhibitor” (Institute of Medicinal Molecular Design, Inc., priority 2008, dated 2014).
Like-named read-outs stand apart in the source and are kept apart here.

Target: T1, recombinant human PAI-1 (Homo sapiens, UniProt P05121)
T1 construct: purchased Molecular Innovations, Inc
Assay: Test Example 2: human PAI-1 inhibitory activity (tPA fluorogenic substrate, pH 7.4 HEPES buffer)
Type: biochemical
Details: for inhibition at 3 µM: read-out: Inhibition Rate of PAI-1 Activity (%)
Method: 0.1 M HEPES, 0.1 M NaCl. 1 mM EDTA. 0.1% Polyethylene glycol 8,000 (Hampton Research Corporation),
2 mM Dimethyldecylphoshine oxide [Apo-10] (Fluka Corporation)

[1] = human PAI-1, compound concentration 0.1 μM
[2] = human PAI-1, compound concentration 0.3 μM
[3] = human PAI-1, compound concentration 1 μM
[4] = human PAI-1, compound concentration 3 μM
[5] = human PAI-1, calculated from the inhibition rates
[6] = human PAI-1, compound concentration 10 μM
[7] = human PAI-1, compound concentration 25 μM

T1 sequence (P05121 24-402): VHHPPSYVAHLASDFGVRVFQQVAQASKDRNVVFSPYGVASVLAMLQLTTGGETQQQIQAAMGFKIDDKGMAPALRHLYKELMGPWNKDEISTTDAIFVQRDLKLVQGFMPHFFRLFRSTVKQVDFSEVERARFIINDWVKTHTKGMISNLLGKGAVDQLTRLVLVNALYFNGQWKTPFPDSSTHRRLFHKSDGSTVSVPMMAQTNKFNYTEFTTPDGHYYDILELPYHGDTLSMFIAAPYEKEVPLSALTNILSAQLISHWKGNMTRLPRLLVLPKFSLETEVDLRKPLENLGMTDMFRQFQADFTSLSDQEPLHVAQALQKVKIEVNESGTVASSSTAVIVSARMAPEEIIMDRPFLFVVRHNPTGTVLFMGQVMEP

SMILES	Inhibition Rate of PAI-1 Activity (%) [1]	Inhibition Rate of PAI-1 Activity (%) [2]	Inhibition Rate of PAI-1 Activity (%) [3]	Inhibition Rate of PAI-1 Activity (%) [4]	other results
CC(C)(C)Oc1ccc(-c2ccc(OC(F)(F)F)cc2)cc1N(CCCCc1ccccc1)C(=O)C(=O)O [Compound 373]	–	–	–	–	IC50: 1580 nM
CCCCC(Oc1cc(Oc2ccc(OC(F)(F)F)cc2)ccc1Oc1ccc(C(C)(C)C)cc1)C(=O)O (centres unmarked) [Compound 312]	–	–	–	–	IC50 [5]: 530 nM
CCCCCOc1ccc(-c2cccc(C)c2)cc1N(CCCCc1ccccc1)C(=O)C(=O)O [Compound 379]	–	–	–	–	IC50: 640 nM
CCCCC(Oc1ccc(-c2ccc(OC(F)(F)F)cc2)cc1OCCCCc1ccccc1)C(=O)O (centres unmarked) [Compound 311]	–	–	–	–	IC50 [5]: 580 nM
CCCCC(CC(=O)O)c1cc(-c2ccc(OC(F)(F)F)cc2)ccc1Oc1ccc(C(C)(C)C)cc1 (centres unmarked) [Compound 422]	12%	24%	72%	>99%	–
CC(C)(C)C1CCC(N(C(=O)C(=O)O)c2ccc(-c3ccc(OC(F)(F)F)cc3)cc2)CC1 (centres unmarked) [Compound 666]	–	–	–	–	Inhibition Rate of PAI-1 Activity (%) (human PAI-1, compound concentration 0.1 μM, 0.1 µM): 0%; Inhibition Rate of PAI-1 Activity (%) (human PAI-1, compound concentration 0.3 μM, 0.3 µM): 21%; Inhibition Rate of PAI-1 Activity (%) (human PAI-1, compound concentration 1 μM, 1 µM): 89%; Inhibition Rate of PAI-1 Activity (%) (human PAI-1, compound concentration 3 μM, 3 µM): 98%
CCCCCOc1cc(-c2cccc(C(F)(F)F)c2)ccc1N(CCCCc1ccccc1)C(=O)C(=O)O [Compound 377]	–	–	–	–	IC50: 480 nM
CCCCC(Oc1cc(-c2ccc(OC(F)(F)F)cc2)ccc1OCCCCc1ccc(Cl)cc1)C(=O)O (centres unmarked) [Compound 325]	–	–	–	–	IC50 [5]: 580 nM
CC(C)(C)c1ccc(Oc2cc(-c3ccc(C(F)(F)F)cc3)ccc2OCC(=O)O)cc1 [Compound 330]	–	–	–	–	IC50 [5]: 1030 nM
CCCCC(Oc1ccc(-c2cccc(C)c2)cc1Oc1ccc(C(C)(C)C)cc1)C(=O)O (centres unmarked) [Compound 321]	–	–	–	–	IC50 [5]: 600 nM
CCCCCOc1cc(-c2ccc(C(F)(F)F)cc2)ccc1N(CCCCc1ccccc1)C(=O)C(=O)O [Compound 392]	–	–	–	–	IC50: 710 nM; inhibition at 3 µM: > 99%
CC(C)Oc1ccc(-c2ccc(OCC(=O)O)c(Oc3ccc(C(C)(C)C)cc3)c2)cc1 [Compound 460]	1%	8%	63%	>99%	–
CCCCCCCOc1ccc(N(CCCCc2ccccc2)C(=O)C(=O)O)cc1-c1ccc(OC(F)(F)F)cc1 [Compound 394]	–	–	–	–	IC50: 220 nM; inhibition at 3 µM: > 99%
CC(C)(C)c1ccc(Oc2cc(-c3ccc(OC(F)(F)F)cc3)ccc2/C=C\C(=O)O)cc1 [Compound 450]	9%	11%	58%	98%	–
CCCCCCOc1ccc(-c2ccc(OC(F)(F)F)cc2)cc1OC(CCCCCC)C(=O)O (centres unmarked) [Compound 429]	7%	9%	93%	95%	–
CCCCCOc1ccc(-c2ccccc2)cc1N(CCCCc1ccccc1)C(=O)C(=O)O [Compound 360]	–	–	–	–	IC50: 1590 nM
CCCCCOc1ccc(-c2ccc(Oc3ccc(C(C)(C)C)cc3)c(OCC(=O)O)c2)cc1 [Compound 454]	11%	17%	>99%	>99%	–
CCCCCOc1ccc(-c2ccc(F)cc2)cc1N(CCCCc1ccccc1)C(=O)C(=O)O [Compound 359]	–	–	–	–	IC50: 1640 nM
CC(C)(C)c1ccc(COc2cc(-c3ccc(OC(F)(F)F)cc3)ccc2OCC(=O)O)cc1 [Compound 304]	–	–	–	–	IC50 [5]: 1230 nM
Cc1cccc(-c2ccc(OCC(=O)O)c(Oc3ccc(C(C)(C)C)cc3)c2)c1 [Compound 319]	–	–	–	–	IC50 [5]: 2100 nM

The next lines start with results.

Inhibition Rate of PAI-1 Activity (%) [1]	Inhibition Rate of PAI-1 Activity (%) [2]	Inhibition Rate of PAI-1 Activity (%) [3]	Inhibition Rate of PAI-1 Activity (%) [4]	SMILES	other results
14%	72%	>99%	>99%	CC(C)c1ccc(-c2ccc(/C=C/C(=O)O)c(Sc3ccc(C(C)(C)C)cc3)c2)cc1 [Compound 520]	–
10%	64%	96%	97%	CCCCCOc1cc(-c2ccc(OC(F)(F)F)cc2)ccc1CN(CC(=O)O)c1ccc(C(C)(C)C)cc1 [Compound 649]	–
3%	15%	92%	>99%	CCCCCOc1ccc(-c2cc(C)cc(C)c2)cc1N(CCCCc1ccccc1)C(=O)C(=O)O [Compound 672]	–
4%	9%	85%	>99%	Cc1cc(C)cc(-c2ccc(/C=C/C(=O)O)c(Oc3ccc(C(C)(C)C)cc3)c2)c1 [Compound 496]	–
9%	24%	87%	92%	Cc1cc(C)cc(Oc2cc(-c3ccc(C(C)(C)C)cc3)ccc2/C=C/C(=O)O)c1 [Compound 494]	–
18%	9%	48%	98%	O=C(O)CCc1ccc(-c2ccc(OC(F)(F)F)cc2)cc1OCCCSc1ccccc1 [Compound 508]	–
23%	22%	84%	>99%	CC(C)(C)c1ccc(C(=O)c2cc(-c3ccc(OC(F)(F)F)cc3)ccc2OCC(=O)O)cc1 [Compound 549]	–
0%	5%	80%	71%	CCCCC1CCC(Oc2ccc(-c3ccc(OC(F)(F)F)cc3)cc2N(CCCCc2ccccc2)C(=O)C(=O)O)CC1 (centres unmarked) [Compound 637]	–
6%	55%	97%	94%	CCCCCOc1ccc(-c2ccc(OC(F)(F)F)cc2)cc1N(CCCCc1cc(C)ccc1C)C(=O)C(=O)O [Compound 670]	–
33%	71%	98%	98%	CCC(CC)Oc1ccc(-c2ccc(CCC(=O)O)c(Oc3ccc(C(C)(C)C)cc3)c2)cc1 [Compound 522]	–
–	–	0%	20%	CC(C)(C)c1ccc(CN(C(=O)CCCC(=O)O)c2ccc(-c3ccc(OC(F)(F)F)cc3)cc2)cc1 [Compound 604]	Inhibition Rate of PAI-1 Activity (%) [6]: 36%; Inhibition Rate of PAI-1 Activity (%) [7]: 46%
17%	21%	93%	>99%	CC(C)(C)c1ccc(Sc2cc(-c3ccc(OC(F)(F)F)cc3)ccc2CC(=O)O)cc1 [Compound 530]	–
13%	26%	91%	>99%	CC(C)(C)c1ccc(Oc2cc(-c3cccc(OC(F)(F)F)c3)ccc2CCC(=O)O)cc1 [Compound 504]	–
26%	12%	23%	92%	O=C(O)C(=O)N(CCCCc1ccccc1)c1ccc(-c2ccc3ccccc3c2)cc1 [Compound 671]	–
12%	16%	86%	>99%	CC(C)(C)c1cccc(Oc2cc(-c3cccc(OC(F)(F)F)c3)ccc2CCC(=O)O)c1 [Compound 515]	–
6%	26%	95%	>99%	CCCCCOc1ccc(-c2ccc(OC(F)(F)F)cc2)cc1CN(C(=O)C(=O)O)c1ccc(C(C)(C)C)cc1 [Compound 645]	–
5%	7%	11%	49%	CC(C)(C)c1ccc(Oc2cc(-c3ccc(C#N)cc3)ccc2OCC(=O)O)cc1 [Compound 471]	–
19%	22%	>99%	>99%	CCCCCCOc1ccc(-c2ccc(OC(F)(F)F)cc2)cc1N(CCCCc1ccccc1)C(=O)C(=O)O [Compound 652]	–
0%	2%	81%	>99%	CC(C)(C)c1ccc(Cc2cc(-c3ccc(OC(F)(F)F)cc3)ccc2OCC(=O)O)cc1 [Compound 550]	–
0%	15%	>99%	>99%	O=C(O)C(=O)N(CCCCc1ccccc1)c1ccc(N2CCCC2)c(-c2ccc(OC(F)(F)F)cc2)c1 [Compound 673]	–
0%	9%	31%	97%	O=C(O)C(=O)N(Cc1ccc(-c2ccc(OC(F)(F)F)cc2)cc1)c1ccccc1-c1ccccc1 [Compound 632]	–
–	–	9%	18%	O=C(O)CC(=O)N(Cc1ccccc1)c1ccc(-c2ccc(OC(F)(F)F)cc2)cc1F [Compound 602]	Inhibition Rate of PAI-1 Activity (%) [6]: 78%; Inhibition Rate of PAI-1 Activity (%) [7]: >99%
